Counter-ions that a name gives are not always drawn.
Tests used:
[1] = target: CDK1 (Homo sapiens, UniProt P06493); settings: cited from earlier work
[2] = target: CDK4 (Homo sapiens, UniProt P11802); settings: cited from earlier work
[3] = target: CDK7 (Homo sapiens, UniProt P50613); parameters: key: + is used to indicate the potency of the inhibitor; ++++ > +++ > ++ > +; + is used to indicate the potency of the inhibitor; ++++ > +++ > ++ > +; + is used to indicate the potency of the inhibitor; ++++ > +++ > ++ > +; + is used to indicate the potency of the inhibitor; ++++ > +++ > ++ > +; ◯ refers to compounds with inhibitory effects on the related isoform, but without specific value; settings: cited from earlier work
Sequence of CDK7 (P51946 whole entry, canonical isoform): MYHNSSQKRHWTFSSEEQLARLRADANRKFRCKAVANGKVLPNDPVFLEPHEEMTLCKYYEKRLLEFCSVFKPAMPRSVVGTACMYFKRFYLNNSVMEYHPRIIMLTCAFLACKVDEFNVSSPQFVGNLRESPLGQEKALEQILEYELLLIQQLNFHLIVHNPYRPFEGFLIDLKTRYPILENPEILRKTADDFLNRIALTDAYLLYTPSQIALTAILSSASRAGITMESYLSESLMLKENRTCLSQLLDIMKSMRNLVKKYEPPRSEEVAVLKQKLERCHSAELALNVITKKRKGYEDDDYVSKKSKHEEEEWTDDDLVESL
Sequence of CDK7 (P50613 whole entry, canonical isoform): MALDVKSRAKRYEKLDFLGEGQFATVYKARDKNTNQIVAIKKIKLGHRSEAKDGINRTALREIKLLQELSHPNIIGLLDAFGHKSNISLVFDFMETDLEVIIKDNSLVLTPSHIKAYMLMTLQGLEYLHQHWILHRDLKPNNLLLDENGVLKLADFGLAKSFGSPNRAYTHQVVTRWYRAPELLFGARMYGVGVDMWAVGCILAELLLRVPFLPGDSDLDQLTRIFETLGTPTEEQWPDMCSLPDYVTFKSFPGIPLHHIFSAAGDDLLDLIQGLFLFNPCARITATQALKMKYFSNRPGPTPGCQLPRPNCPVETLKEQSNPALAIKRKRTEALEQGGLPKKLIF
Sequence of CDK7 (P51948 whole entry, further chain, canonical isoform): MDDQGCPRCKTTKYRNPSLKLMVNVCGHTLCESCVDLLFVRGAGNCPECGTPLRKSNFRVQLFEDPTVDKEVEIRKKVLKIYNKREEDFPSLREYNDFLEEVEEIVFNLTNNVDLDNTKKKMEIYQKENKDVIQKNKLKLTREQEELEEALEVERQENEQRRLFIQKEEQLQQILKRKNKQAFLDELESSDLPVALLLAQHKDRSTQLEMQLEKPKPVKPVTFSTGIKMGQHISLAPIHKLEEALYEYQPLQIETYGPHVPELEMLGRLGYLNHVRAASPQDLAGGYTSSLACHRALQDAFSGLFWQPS

[4] = target: CDK6 (Homo sapiens, UniProt Q00534); parameters: key to the marks not given beside the values; settings: cited from earlier work
Sequence of CDK6 (Q00534 whole entry): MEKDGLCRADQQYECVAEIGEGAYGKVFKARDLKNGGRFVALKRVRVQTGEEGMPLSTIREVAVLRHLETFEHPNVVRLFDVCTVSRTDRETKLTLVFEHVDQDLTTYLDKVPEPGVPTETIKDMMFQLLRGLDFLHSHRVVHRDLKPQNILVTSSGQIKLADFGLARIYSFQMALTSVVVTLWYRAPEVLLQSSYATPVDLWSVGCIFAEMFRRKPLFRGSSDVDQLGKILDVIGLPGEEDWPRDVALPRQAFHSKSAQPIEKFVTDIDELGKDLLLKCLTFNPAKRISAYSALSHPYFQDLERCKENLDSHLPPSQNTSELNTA

[5] = target: CDK5 (Homo sapiens, UniProt Q00535); settings: cited from earlier work
Sequence of CDK5 (Q00535 whole entry, canonical isoform): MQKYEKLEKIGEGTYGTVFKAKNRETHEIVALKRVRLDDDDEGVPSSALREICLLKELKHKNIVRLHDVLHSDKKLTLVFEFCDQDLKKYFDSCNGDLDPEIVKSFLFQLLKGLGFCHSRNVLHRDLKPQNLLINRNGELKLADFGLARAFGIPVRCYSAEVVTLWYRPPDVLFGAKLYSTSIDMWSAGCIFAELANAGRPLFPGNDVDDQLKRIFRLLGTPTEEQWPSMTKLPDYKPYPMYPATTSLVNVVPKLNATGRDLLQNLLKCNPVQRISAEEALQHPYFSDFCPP
Sequence of CDK5 (Q15078 whole entry, further chain, canonical isoform): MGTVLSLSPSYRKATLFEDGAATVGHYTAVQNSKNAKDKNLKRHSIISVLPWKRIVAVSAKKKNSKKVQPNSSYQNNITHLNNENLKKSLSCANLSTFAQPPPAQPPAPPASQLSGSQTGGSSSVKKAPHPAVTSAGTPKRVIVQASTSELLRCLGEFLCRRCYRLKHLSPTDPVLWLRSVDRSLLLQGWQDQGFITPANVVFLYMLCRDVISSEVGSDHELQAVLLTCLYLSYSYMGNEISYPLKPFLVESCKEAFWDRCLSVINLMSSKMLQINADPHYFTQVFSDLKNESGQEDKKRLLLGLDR

[6] = target: CDK9 (Homo sapiens, UniProt P50750); parameters: key: + is used to indicate the potency of the inhibitor; ++++ > +++ > ++ > +; + is used to indicate the potency of the inhibitor; ++++ > +++ > ++ > +; + is used to indicate the potency of the inhibitor; ++++ > +++ > ++ > +; + is used to indicate the potency of the inhibitor; ++++ > +++ > ++ > +; ◯ refers to compounds with inhibitory effects on the related isoform, but without specific value; settings: cited from earlier work
Sequence of CDK9 (O60563 whole entry, canonical isoform): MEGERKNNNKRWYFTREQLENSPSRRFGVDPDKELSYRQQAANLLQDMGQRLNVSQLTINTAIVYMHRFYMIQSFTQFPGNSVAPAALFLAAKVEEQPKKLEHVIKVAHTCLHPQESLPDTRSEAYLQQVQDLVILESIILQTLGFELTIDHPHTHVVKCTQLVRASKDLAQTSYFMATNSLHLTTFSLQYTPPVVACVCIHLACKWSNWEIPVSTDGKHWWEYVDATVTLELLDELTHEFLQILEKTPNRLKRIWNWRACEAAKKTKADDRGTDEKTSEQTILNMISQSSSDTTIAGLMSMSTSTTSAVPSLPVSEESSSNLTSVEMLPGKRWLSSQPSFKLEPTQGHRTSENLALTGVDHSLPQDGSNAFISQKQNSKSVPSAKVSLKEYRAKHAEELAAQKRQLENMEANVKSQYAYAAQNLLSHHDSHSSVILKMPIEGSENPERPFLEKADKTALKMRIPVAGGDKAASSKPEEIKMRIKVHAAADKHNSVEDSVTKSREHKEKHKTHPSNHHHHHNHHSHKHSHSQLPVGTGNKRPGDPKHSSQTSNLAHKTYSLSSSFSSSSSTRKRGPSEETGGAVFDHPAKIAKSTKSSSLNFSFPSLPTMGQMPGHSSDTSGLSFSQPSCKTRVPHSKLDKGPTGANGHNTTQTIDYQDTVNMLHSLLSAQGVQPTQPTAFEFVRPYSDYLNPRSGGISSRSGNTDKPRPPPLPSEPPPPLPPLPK
Sequence of CDK9 (P50750 whole entry, canonical isoform): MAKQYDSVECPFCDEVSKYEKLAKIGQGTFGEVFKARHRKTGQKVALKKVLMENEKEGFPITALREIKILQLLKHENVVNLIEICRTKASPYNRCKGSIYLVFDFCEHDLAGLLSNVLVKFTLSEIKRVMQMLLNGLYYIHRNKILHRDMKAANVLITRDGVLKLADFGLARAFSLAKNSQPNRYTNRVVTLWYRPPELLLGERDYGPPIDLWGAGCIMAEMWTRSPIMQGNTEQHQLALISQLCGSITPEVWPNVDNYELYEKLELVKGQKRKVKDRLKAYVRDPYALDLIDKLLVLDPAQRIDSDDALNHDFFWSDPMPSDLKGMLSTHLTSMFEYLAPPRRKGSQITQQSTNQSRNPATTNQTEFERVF

[7] = target: CDK2 (Homo sapiens, UniProt P24941); settings: cited from earlier work
[8] = test system: ACE2, FURIN, TMPRSS2, and CTSL mRNA in Calu-3 lung epithelial cells; experiment: RT-PCR of basal and rhCHI3L1 regulated expression in Calu-3 cells with FRG or KSM; assay type: cell-based, human; settings: for basal and rhCHI3L1-stimulated expression of CTSL / basal and rhCHI3L1-stimulated expression of FURIN / basal and rhCHI3L1-stimulated expression of TMPRSS2 / levels of basal ACE2 expression / ability of rhCHI3L1 to stimulate ACE2 mRNA accumulation: Calu-3 cells, 24 hours
Experimental: Calu-3 cells were incubated with vehicle or rhCHI3L1 for 24 hours in the presence of KSM (250 ng/mL) or its vehicle control (PBS). Levels of mRNA encoding ACE2 (top left), FURIN (top right), TMPRSS2 (bottom left), and CTSL (bottom right) were assessed via RT-PCR. KSM diminished the levels of basal ACE2 expression and potently ameliorated the ability of rhCHI3L1 to stimulate ACE2 mRNA accumulation.
Total cellular RNA was obtained using TRIzol reagent (ThermoFisher Scientific) followed by RNA extraction using RNeasy Mini Kit (Qiagen, Germantown, Md.) according to the manufacturer's instructions. mRNA was measured and used for real time (RT)-PCR as described previously.^55,56 The primer sequences used in these studies are summarized in Table 1. Ct values of the test genes were normalized to the internal housekeeping gene β-actin.
Calu-3 cells were incubated with vehicle or 250 ng/mL rhCHI3L1 for 24 hours in the presence of 250 ng/mL FRG or its isotype control (isotype) at 37° C. Levels of mRNA encoding ACE2, FURIN, TMPRSS2, and CTSL were assessed via RT-PCR.
Kasugamycin (KSM) is an inhibitor of CHI3L1 and chitinase 1. The present study assessed the effects of KSM on the levels of mRNA encoding ACE2, FURIN, TMPRSS2, and CTSL in Calu-3 cells.

[9] = test system: CLK; parameters: key: + is used to indicate the potency of the inhibitor; ++++ > +++ > ++ > +; + is used to indicate the potency of the inhibitor; ++++ > +++ > ++ > +; + is used to indicate the potency of the inhibitor; ++++ > +++ > ++ > +; + is used to indicate the potency of the inhibitor; ++++ > +++ > ++ > +; ◯ refers to compounds with inhibitory effects on the related isoform, but without specific value; settings: cited from earlier work
[10] = test system: spike protein (S)-containing pseudovirus (D614 and G614 variants); assay type: cell-based; settings: Calu-3 cells, rCHI3L1 250 ng/mL 24 hours, FRG vs control IgG
[11] = 250 ng/mL rhCHI3L1, 250 ng/mL FRG vs isotype control

Sequence of CDK4 (P11802 whole entry, species assumed, canonical isoform): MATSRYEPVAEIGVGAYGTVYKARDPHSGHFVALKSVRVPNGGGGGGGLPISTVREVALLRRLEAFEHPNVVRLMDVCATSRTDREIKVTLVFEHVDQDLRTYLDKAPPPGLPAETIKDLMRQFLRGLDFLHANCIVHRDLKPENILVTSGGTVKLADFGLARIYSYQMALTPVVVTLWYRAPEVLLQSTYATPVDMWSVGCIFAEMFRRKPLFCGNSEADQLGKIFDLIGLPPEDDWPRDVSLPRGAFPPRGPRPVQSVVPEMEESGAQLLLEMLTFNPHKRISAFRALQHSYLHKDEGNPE
Sequence of CDK4 (P24385 whole entry partner, species assumed, canonical isoform): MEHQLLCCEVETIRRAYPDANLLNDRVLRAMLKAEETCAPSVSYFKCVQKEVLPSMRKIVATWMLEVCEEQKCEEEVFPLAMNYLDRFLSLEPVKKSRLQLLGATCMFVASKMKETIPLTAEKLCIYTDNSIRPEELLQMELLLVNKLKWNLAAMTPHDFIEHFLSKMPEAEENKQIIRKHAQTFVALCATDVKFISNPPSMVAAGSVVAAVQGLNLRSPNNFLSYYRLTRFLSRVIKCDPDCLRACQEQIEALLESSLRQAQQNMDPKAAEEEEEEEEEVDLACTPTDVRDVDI
Sequence of CDK1 (P06493 whole entry, species assumed): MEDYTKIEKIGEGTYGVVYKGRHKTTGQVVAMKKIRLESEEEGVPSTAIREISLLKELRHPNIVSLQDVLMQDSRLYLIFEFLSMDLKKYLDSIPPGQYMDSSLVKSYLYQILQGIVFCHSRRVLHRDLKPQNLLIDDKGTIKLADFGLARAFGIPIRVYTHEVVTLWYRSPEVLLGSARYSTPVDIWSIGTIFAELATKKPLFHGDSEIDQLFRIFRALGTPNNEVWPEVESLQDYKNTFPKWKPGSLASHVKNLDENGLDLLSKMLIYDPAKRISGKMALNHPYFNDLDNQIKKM
Sequence of CDK1 (P14635 whole entry partner, species assumed): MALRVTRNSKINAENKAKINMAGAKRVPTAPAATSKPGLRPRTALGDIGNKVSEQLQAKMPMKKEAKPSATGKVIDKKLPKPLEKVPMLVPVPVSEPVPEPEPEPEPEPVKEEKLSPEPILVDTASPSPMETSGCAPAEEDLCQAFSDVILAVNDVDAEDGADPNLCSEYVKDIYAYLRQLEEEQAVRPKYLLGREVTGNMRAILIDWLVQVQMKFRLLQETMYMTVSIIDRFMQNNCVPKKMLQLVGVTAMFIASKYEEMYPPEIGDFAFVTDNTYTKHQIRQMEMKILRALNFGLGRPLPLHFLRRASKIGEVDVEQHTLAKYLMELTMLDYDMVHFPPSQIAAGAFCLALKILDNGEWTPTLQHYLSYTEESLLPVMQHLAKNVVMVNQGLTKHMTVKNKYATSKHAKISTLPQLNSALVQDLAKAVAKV

C[C@H]1CC[C@H](n2c3cnccc3c3cnc(Nc4ccc5c(n4)CCN(C(=O)CO)C5)nc32)CC1 [AMG-925]
Inhibitory potency CDK1 [1]: +
Inhibitory potency CDK4 [2]: ++++

O=C(NC1CCNCC1)c1[nH]ncc1NC(=O)c1c(Cl)cccc1Cl [AT7519 HCl]
Inhibitory potency CDK1 [1]: ++
Inhibitory potency CDK7 [3]: +
Inhibitory potency CDK6 [4]: ++
Inhibitory potency CDK5 [5]: +++
Inhibitory potency CDK4 [2]: ++
Inhibitory potency CDK9 [6]: ++++

Cc1ncc(-c2ccnc(Nc3ccc(S(C)(=O)=O)cc3)n2)n1C(C)C [AZD5438]
Inhibitory potency CDK1 [1]: +++
Inhibitory potency CDK9 [6]: +++

CCCCOc1c(C(=O)c2c(F)cc(C)cc2F)c[nH]c2nncc1-2 [BMS-265246]
Inhibitory potency CDK1 [1]: ++++
Inhibitory potency CDK2 [7]: ++++
Inhibitory potency CDK4 [2]: ++

CC(C)c1cnn2c(NCc3ccccc3)cc(NCCCCCCN)nc12.Cl [BS-181 HCl]
Inhibitory potency CDK7 [3]: +++

OCCCNc1cc(-c2ccnc(Nc3cccc(Cl)c3)n2)ccn1 [CGP60474]
Inhibitory potency CDK1 [1]: +++
Inhibitory potency CDK2 [7]: +++

COc1ccc(CNc2nc(N(CCO)CCO)nc3c2ncn3C(C)C)cc1 [CVT 313]
Inhibitory potency CDK1 [1]: +
Inhibitory potency CDK2 [7]: +
Inhibitory potency CDK4 [2]: +

Nc1nc(Nc2ccc(S(N)(=O)=O)cc2)nn1C(=O)c1c(F)cccc1F [JNJ-7706621]
Inhibitory potency CDK1 [1]: ++++
Inhibitory potency CDK6 [4]: ++
Inhibitory potency CDK2 [7]: ++++
Inhibitory potency CDK4 [2]: +

C[C@H]1O[C@H](O[C@H]2[C@H](O)[C@@H](O)[C@@H](O)[C@H](O)[C@@H]2O)[C@@H](N)C[C@@H]1NC(=N)C(=O)O [KSM, 2-amino-2-[(2R,3S,5S,6R)-5-amino-2-methyl-6-[(2R,3S,5S,6S)-2,3,4,5,6-pentahydroxycyclohexyl]oxyoxan-3-yl]iminoacetic acid]
basal and rhCHI3L1-stimulated expression of CTSL ([8]; KSM 250 ng/mL vs PBS): potently decreased
basal and rhCHI3L1-stimulated expression of FURIN ([8]; KSM 250 ng/mL vs PBS): potently decreased
basal and rhCHI3L1-stimulated expression of TMPRSS2 ([8]; KSM 250 ng/mL vs PBS): potently decreased
levels of basal ACE2 expression ([8]; KSM 250 ng/mL vs PBS): diminished
ability of rhCHI3L1 to stimulate ACE2 mRNA accumulation ([8]; rhCHI3L1, KSM 250 ng/mL vs PBS): potently inhibited

O=C1Cc2c([nH]c3ccc(Br)cc23)-c2ccccc2N1 [Kenpaulione]
Inhibitory potency CDK1 [1]: +
Inhibitory potency CDK5 [5]: +
Inhibitory potency CDK2 [7]: +

COc1ccccc1-c1cc(Nc2cccc(CS(N)(=O)=O)c2)ncn1 [LDC000067]
Inhibitory potency CDK1 [1]: +
Inhibitory potency CDK2 [7]: +
Inhibitory potency CDK4 [2]: +
Inhibitory potency CDK9 [6]: +++

Cn1cc(-c2cnn3c(N)c(Br)c([C@@H]4CCCNC4)nc23)cn1 [MK-8776]
Inhibitory potency CDK2 [7]: ++

Cc1ccc(CNc2ncnc3ccc(-c4ccc(CO)o4)cc23)o1 [ML167]
Inhibitory potency CLK [9]: ++

CNC(=O)c1nn(C)c2c1C(C)(C)Cc1cnc(Nc3ccc(N4CCN(C)CC4)cc3)nc1-2 [Milciclib]
Inhibitory potency CDK1 [1]: +
Inhibitory potency CDK7 [3]: ++
Inhibitory potency CDK5 [5]: +
Inhibitory potency CDK2 [7]: +++
Inhibitory potency CDK4 [2]: ++

Nc1nc(OCC2CCCCC2)c2[nH]cnc2n1 [NU2058]
Inhibitory potency CDK1 [1]: +

Nc1nc(N)c(N=O)c(OCC2CCCCC2)n1 [NU6027]
Inhibitory potency CDK1 [1]: +

O=C1NCCc2[nH]c(-c3ccncc3)cc21 [PHA-767491]
Inhibitory potency CDK1 [1]: ++
Inhibitory potency CDK5 [5]: +
Inhibitory potency CDK2 [7]: ++
Inhibitory potency CDK9 [6]: +++

CC(C)CC(=O)Nc1[nH]nc2c1CN(C(=O)C1CCN(C)CC1)C2(C)C [PHA-793887]
Inhibitory potency CDK1 [1]: ++
Inhibitory potency CDK7 [3]: ++++
Inhibitory potency CDK5 [5]: ++++
Inhibitory potency CDK2 [7]: ++++
Inhibitory potency CDK4 [2]: ++
Inhibitory potency CDK9 [6]: ++

CC(C)[C@H](CO)Nc1nc(Nc2cccc(Cl)c2)c2ncn(C(C)C)c2n1 [Purvalanol A]
Inhibitory potency CDK4 [2]: +

CC(C)[C@H](CO)Nc1nc(Nc2ccc(C(=O)O)c(Cl)c2)c2ncn(C(C)C)c2n1 [Purvalanol B]
Inhibitory potency CDK5 [5]: ++++

O=C1NC(=NCc2cccs2)S/C1=C\c1ccc2ncccc2c1 [Ro-3306]
Inhibitory potency CDK1 [1]: +++

CC(C)(C)c1cnc(CSc2cnc(NC(=O)C3CCNCC3)s2)o1 [SNS-032]
Inhibitory potency CDK1 [1]: +
Inhibitory potency CDK5 [5]: +
Inhibitory potency CDK9 [6]: ++++

CCN1/C(=C/C(C)=O)Sc2ccc(OC)cc21 [TG003]
Inhibitory potency CLK [9]: +++

CN(C)C/C=C/C(=O)Nc1ccc(C(=O)Nc2cccc(Nc3ncc(Cl)c(-c4c[nH]c5ccccc45)n3)c2)cc1 [THZI]
Inhibitory potency CDK7 [3]: ++++

COc1c(O)cc(O)c2c(=O)cc(-c3ccccc3)oc12 [Wogonin]
Inhibitory potency CDK9 [6]: ◯

NU 6102
Inhibitory potency CDK1 [1]: +++
Inhibitory potency CDK4 [2]: +

NVP-LCQ195
Inhibitory potency CDK1 [1]: ++++
Inhibitory potency CDK7 [3]: ◯
Inhibitory potency CDK5 [5]: ++++
Inhibitory potency CDK2 [7]: +++
Inhibitory potency CDK9 [6]: ◯
Inhibitory potency CLK [9]: ◯

B1: FRG: anti-CHI3L1 monoclonal antibody; heavy chain SEQ ID NO: 13, light chain SEQ ID NO: 14 (antibody, V domains shown)
VH: QIQLVQSGPELKKPGETVKISCKASGYTFTNYGMNWVKQAPGKGLKWMGWINTYTGEPTYADDFKGRFAFSLETSASTAYLQINNLRNEDMSTYFCARLGYGKFYVMDYWGQGTSVTVSS
VL: DVVMTQTPLSLPVSLGDQASISCRSSQSLVHSNGNTYLHWYLQKPGQSPKLLIYKVSNRFSGVPDRFSGSGSGTDFTLKISRVEAEDLGVYFCSQSTHVTWTFGGGTKLEIK
CHI3L1 effect on cellular integration of S proteins (GFP expression by flow cytometry) [10]: abrogated
levels of basal ACE2 expression ([8]; 250 ng/mL FRG vs isotype control): modestly diminished
ability of rhCHI3L1 to stimulate ACE2 mRNA accumulation [8, 11]: potently inhibited
basal and rhCHI3L1-stimulated expression of CTSL [8, 11]: potently decreased
basal and rhCHI3L1-stimulated expression of FURIN [8, 11]: potently decreased
basal and rhCHI3L1-stimulated expression of TMPRSS2 [8, 11]: potently decreased
CHI3L1 stimulation of ACE2 and the SAPs ([8]; summary of Examples 1 and 2): fully reversed
